The target of this experiment is T1, human PDE4B1 (Homo sapiens, UniProt Q07343).
T1 construct: host or cells: Sf9 cells
As to the kind of experiment: cAMP HTRF assay to determine the activity of hPDE4B1. The class given is biochemical. Conditions: for IC50: dose response measurements with eight concentrations, reported as ranges, read-out: IC50. How it is done: cAMP HTRF® Assay to Determine the Activity of hPDE4B1
The inhibiting effect of the compounds on the enzyme activity of human PDE4B1 was measured by the quantification of 5′-adenosine monophosphate (5′-AMP), which is formed from 3′,5′-cyclic adenosine monophosphate (cAMP). Human recombinant enzyme, expressed in Sf9 cells, and the HTRF (homogeneous time-resolved fluorescence) detection method were used in the assay.
The test compound or water (control) was mixed with the human recombinant PDE4B1 enzyme (4.8 U) in a buffer consisting of 44.4 mM tris-HCl, 5.28 mM MgCl2, 2.64 mM DTT and 0.044% Tween 20 (pH 7.8). After adding the cAMP enzyme substrate (final concentration 40 nM), the mixture was incubated for 30 minutes at room temperature. Then a fluorescence acceptor (Dye2 marked with cAMP), a fluorescence donor (anti-cAMP antibody marked with a europium cryptate) and the non-specific phosphodiesterase inhibitor IBMX (3-isobutyl-1-methylxanthine; final concentration 1 mM) were added. After 60 minutes the fluorescence transfer, which correlates with the amount of remaining cAMP, was measured with a microplate reader (Rubystar, BMG) at λex=337 nm, λem=620 nm and λem=665 nm. The enzyme activity was calculated from the quotient formed from the measured signal at 665 nm and that at 620 nm. The result was expressed as the percentage inhibition of enzyme activity of the control (without PDE4 inhibitor). The enzyme was omitted for measurement of the basal control.
IC50 values (IC50=concentration causing a half-maximal inhibition of control specific activity) were derived from dose response measurements with eight different concentrations (n=2; N=1-2).
Literature: N. Saldou et al., Comparison of recombinant human PDE4 isoforms: interaction with substrate and inhibitors, Cell. Signal. Vol. 10, No. 6, 427-440, 1998
In general terms: TR-FRET usually uses a lanthanide donor and a delayed reading to cut background.

Setting [1] is: Percentage inhibition of PDE4B at 1 μM test concentration.

SMILES strings stand for the structures.

T1 sequence (Q07343 whole entry): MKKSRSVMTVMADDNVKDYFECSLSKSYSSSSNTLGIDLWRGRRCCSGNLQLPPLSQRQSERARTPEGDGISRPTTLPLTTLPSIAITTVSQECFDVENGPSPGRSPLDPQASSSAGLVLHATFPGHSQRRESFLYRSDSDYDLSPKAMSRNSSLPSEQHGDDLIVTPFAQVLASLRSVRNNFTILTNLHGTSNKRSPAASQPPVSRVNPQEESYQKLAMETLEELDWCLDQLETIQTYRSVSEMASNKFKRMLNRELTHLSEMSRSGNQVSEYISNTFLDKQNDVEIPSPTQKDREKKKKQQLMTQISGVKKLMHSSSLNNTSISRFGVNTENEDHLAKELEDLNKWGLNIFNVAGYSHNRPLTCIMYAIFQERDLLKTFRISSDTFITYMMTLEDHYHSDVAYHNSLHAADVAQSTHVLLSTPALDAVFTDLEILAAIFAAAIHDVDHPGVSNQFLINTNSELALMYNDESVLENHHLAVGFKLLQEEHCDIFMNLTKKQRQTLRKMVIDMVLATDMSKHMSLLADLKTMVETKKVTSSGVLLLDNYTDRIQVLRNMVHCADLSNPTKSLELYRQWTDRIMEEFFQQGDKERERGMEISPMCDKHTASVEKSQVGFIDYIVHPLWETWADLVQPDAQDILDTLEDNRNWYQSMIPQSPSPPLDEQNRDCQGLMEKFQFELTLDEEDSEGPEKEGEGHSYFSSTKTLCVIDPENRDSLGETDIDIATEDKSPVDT

A word on the inhibition: it is the drop in the measured response relative to a control, in per cent. On to `O=C(O)c1ccc2ncn(-c3nc(-c4ccc(Cl)s4)nc4c3CCC4)c2c1` (single isomer, unassigned) [Compound No. 1-74, 1-(2-(5-Chlorothiophen-2-yl)-6,7-dihydro-5H-cyclopenta[d]pyrimidin-4-yl)-1H-benzo[d]imidazole-6-carboxylic acid], for which the inhibition at 1 µM under setting [1] stood at 31%.
Take `O=C(O)Cc1ccc2c(c1)CC(=O)N2c1nc(-c2ccc(Cl)s2)nc2c1CCC2` [Compound No. 1-64, 2-(1-(2-(5-Chlorothiophen-2-yl)-6,7-dihydro-5H-cyclopenta[d]-pyrimidin-4-yl)-2-oxoindolin-5-yl)acetic acid]: under setting [1], the inhibition at 1 µM came out at 28%.
What is called IC50 is the concentration at which inhibition is half-maximal. `COc1ccc(-c2nc3c(c(N4CCc5ccc(OCC(=O)N(C)C)cc54)n2)CS(=N)(=O)C3)cc1F` (centres unmarked) [Compound No. 2-115, 2-((1-(2-(3-Fluoro-4-methoxyphenyl)-6-imino-6-oxido-5,7-dihydrothieno[3,4-d]pyrimidin-4-yl)indolin-6-yl)oxy)-N,N-dimethylacetamide]: the IC50 is less than 100 nM. Also, the inhibition at 1 µM under setting [1] worked out at 106%.
For `O=C(O)c1ccc2c(c1)CC(=O)N2c1nc(-c2ccc(Cl)s2)nc2c1CCC2` [Compound No. 1-69, 1-(2-(5-Chlorothiophen-2-yl)-6,7-dihydro-5H-cyclopenta[d]pyrimidin-4-yl)-2-oxoindoline-5-carboxylic acid], in that order: 100 to 1000 nM and 61%.
On to `CN(CC1CC1)C(=O)COc1ccc2c(c1)N(c1nc(-c3ccc(Cl)s3)nc3c1CCC3)CC2` [Compound No. 2-67, 2-((1-(2-(5-Chlorothiophen-2-yl)-6,7-dihydro-5H-cyclopenta[d]pyrimidin-4-yl)indolin-6-yl)oxy)-N-(cyclopropylmethyl)-N-methylacetamide], for which the inhibition at 1 µM under setting [1] came to 6%.
For `CN(C)C(=O)COc1ccc2c(c1)N(c1nc(-c3ccccc3C(F)(F)F)nc3c1C[S+]([O-])C3)CC2` (centres unmarked) [2-97, N,N-Dimethyl-2-[[1-[6-oxo-2-[2-(trifluoromethyl)-phenyl]-5,7-dihydro-thieno[3,4-d]pyrimidin-4-yl]-2,3-dihydro-1H-indol-6-yl]oxy]-acetamide], the half-inhibitory concentration (IC50) fell in the range of 100 to 1000 nM. Further, the inhibition at 1 µM under setting [1] was found to be 93%.
For `CC(=O)Nc1ccc(-c2nc3c(c(N4CCc5ccc(OCC(=O)N(C)C)cc54)n2)C[S+]([O-])C3)cc1` (centres unmarked) [2-109, 2-[[1-[2-(4-Acetylamino-phenyl)-6-oxo-5,7-dihydro-thieno[3,4-d]pyrimidin-4-yl]-2,3-dihydro-1H-indol-6-yl]oxy]-N,N-dimethyl-acetamide], in that order: less than 100 nM and 98%.
In the case of `CN(C)C(=O)COc1ccc2c(c1)N(c1nc(-c3ccc(Cl)s3)nc3c1CCC3)CC2` [Compound No. 2-42, 2-((1-(2-(5-Chlorothiophen-2-yl)-6,7-dihydro-5H-cyclopenta[d]pyrimidin-4-yl)indolin-6-yl)oxy)-N,N-dimethylacetamide], the IC50 is less than 100 nM. Besides, the inhibition at 1 µM under setting [1] was found to be 79%.
In the case of `CC(C)NC(=O)COc1ccc2c(c1)N(c1nc(-c3ccc(Cl)s3)nc3c1CCC3)CC2` [Compound No. 2-66, 2-((1-(2-(5-Chlorothiophen-2-yl)-6,7-dihydro-5H-cyclopenta[d]pyrimidin-4-yl)indolin-6-yl)oxy)-N-isopropylacetamide], under setting [1], the inhibition at 1 µM was 32%.
With `CN(C)C(=O)COc1ccc2c(c1)N(c1nc(-c3cccc(Cl)c3)nc3c1C[S+]([O-])C3)CC2` (centres unmarked) [2-89, 2-[[1-[2-(3-Chlorophenyl)-6-oxo-5,7-dihydro-thieno[3,4-d]pyrimidin-4-yl]-2,3-dihydro-1H-indol-6-yl]oxy]-N,N-dimethyl-acetamide], the IC50 is less than 100 nM. Further, the inhibition at 1 µM under setting [1] came to 119%.
For `CN(C)C(=O)COc1ccc2oc(=O)n(-c3nc(-c4ccc(Cl)s4)nc4c3C[S+]([O-])C4)c2c1` (centres unmarked) [2-76, 2-((3-(2-(5-Chlorothiophen-2-yl)-6-oxido-5,7-dihydrothieno[3,4-d]pyrimidin-4-yl)-2-oxo-2,3-dihydrobenzo[d]oxazol-5-yl)oxy)-N,N-dimethylacetamide], in that order: 100 to 1000 nM and 62%.
Take `CCNC(=O)COc1ccc2c(c1)N(c1nc(-c3ccc(Cl)s3)nc3c1CCC3)CC2` [Compound No. 2-68, 2-((1-(2-(5-Chlorothiophen-2-yl)-6,7-dihydro-5H-cyclopenta[d]pyrimidin-4-yl)indolin-6-yl)oxy)-N-ethylacetamide]: the inhibition at 1 µM under setting [1] was 2%.
For the compound `CN(C)C(=O)COc1ccc2c(c1)N(c1nc(-c3cccc4[nH]ccc34)nc3c1C[S+]([O-])C3)CC2` (centres unmarked) [2-151, 2-[[1-[2-(1H-Indol-4-yl)-6-oxo-5,7-dihydro-thieno[3,4-d]pyrimidin-4-yl]-2,3-dihydro-1H-indol-6-yl]oxy]-N,N-dimethyl-acetamide], the IC50 is less than 100 nM. The inhibition at 1 µM under setting [1] is 108%.
For `CN(C)C(=O)COc1ccc2c(c1)N(c1nc(-c3cccc(S(C)(=O)=O)c3)nc3c1C[S+]([O-])C3)CC2` (centres unmarked) [2-107, N,N-Dimethyl-2-[[1-[2-(3-methylsulfonyl-phenyl)-6-oxo-5,7-dihydro-thieno[3,4-d]pyrimidin-4-yl]-2,3-dihydro-1H-indol-6-yl]oxy]-acetamide], in that order: less than 100 nM and 113%.
As for `CN(C)C(=O)COc1ccc2c(c1)N(c1nc(-c3cccc(C(N)=O)c3)nc3c1C[S+]([O-])C3)CC2` (centres unmarked) [2-108, 3-[4-[6-[(Dimethyl-carbamoyl)-methoxy]-2,3-dihydro-1H-indol-1-yl]-6-oxo-5,7-dihydro-thieno[3,4-d]pyrimidin-2-yl]-benzamide], the inhibition at 1 µM under setting [1] was found to be 62%.
As for `CN(C)C(=O)COc1ccc2c(c1)N(c1nc(-c3cc(F)ccc3F)nc3c1C[S+]([O-])C3)CC2` (centres unmarked) [2-113, 2-[[1-[2-(2,5-Difluoro-phenyl)-6-oxo-5,7-dihydro-thieno[3,4-d]pyrimidin-4-yl]-2,3-dihydro-1H-indol-6-yl]oxy]-N,N-dimethyl-acetamide], the half-maximal inhibitory concentration (IC50) was less than 100 nM. Also, under setting [1], the inhibition at 1 µM was determined as 99%.
For the compound `NC(=O)Cc1ccc2c(c1)CCN2c1nc(-c2ccc(Cl)s2)nc2c1CS(=O)(=O)C2` [Compound No. 3-6, 2-(1-(2-(5-Chlorothiophen-2-yl)-6,6-dioxido-5,7-dihydrothieno[3,4-d]pyrimidin-4-yl)indolin-5-yl)acetamide], the IC50 was less than 100 nM. The inhibition at 1 µM under setting [1] turned out to be 103%.
As for `O=C(COc1ccc2c(c1)N(c1nc(-c3ccc(F)s3)nc3c1C[S+]([O-])C3)CC2)N1CCCC1` (centres unmarked) [Compound No. 2-120, 2-((1-(2-(5-Fluorothiophen-2-yl)-6-oxido-5,7-dihydrothieno[3,4-d]pyrimidin-4-yl)indolin-6-yl)oxy)-1-(pyrrolidin-1-yl)ethanone], the inhibition at 1 µM under setting [1] came to 116%.
One may read the Inhibition as the share of the control response that was lost under treatment. With `O=C(O)Cc1ccc2c(c1)CCN2c1nc(-c2ccc(Cl)s2)nc2c1C[S+]([O-])C2` (centres unmarked) [Compound No. 1-21, 2-(1-(2-(5-Chlor-thiophen-2-yl)-6-oxo-5,7-dihydro-thieno[3,4-d]pyrimidin-4-yl)-2,3-dihydro-1H-indol-5-yl)acetic acid], under setting [1], the “Inhibition at 1 μM test concentration [%]” value is recorded as 88%.
Take `CN(C)C(=O)COc1ccc2c(c1)N(c1nc(-c3ccc(F)s3)nc3c1CCC3)CC2` [Compound No. 2-46, 2-((1-(2-(5-Fluorothiophen-2-yl)-6,7-dihydro-5H-cyclopenta[d]pyrimidin-4-yl)indolin-6-yl)oxy)-N,N-dimethylacetamide]: the IC50 is less than 100 nM. Besides, under setting [1], the inhibition at 1 µM stood at 94%.
On to `O=C(O)Cc1ccc2c(ccn2-c2nc(-c3ccc(Cl)s3)nc3c2CCC3)c1` [Compound No. 1-71, 2-(1-(2-(5-Chlorothiophen-2-yl)-6,7-dihydro-5H-cyclopenta[d]pyrimidin-4-yl)-1H-indol-5-yl)acetic acid], for which the half-inhibitory concentration (IC50) fell in the range of 100 to 1000 nM. Under setting [1], the inhibition at 1 µM came to 64%.
As to `CN1CCN(C(=O)COc2ccc3c(c2)N(c2nc(-c4ccc(Cl)s4)nc4c2C[S+]([O-])C4)CC3)CC1` (centres unmarked) [Compound No. 2-117, 2-((1-(2-(5-Chlorothiophen-2-yl)-6-oxido-5,7-dihydrothieno[3,4-d]pyrimidin-4-yl)indolin-6-yl)oxy)-1-(4-methylpiperazin-1-yl)ethanone], the inhibition at 1 µM under setting [1] is 88%.
On the same count and under the same terms, with `CN(C)CCOc1ccc2c(c1)N(c1nc(-c3ccc(Cl)s3)nc3c1CCC3)CC2` [Compound No. 3-7, 2-((1-(2-(5-Chlorothiophen-2-yl)-6,7-dihydro-5H-cyclopenta[d]-pyrimidin-4-yl)indolin-6-yl)oxy)-N,N-dimethylethanamine] the figure was 48%.
Regarding `Cc1ccccc1-c1nc2c(c(N3CCc4ccc(OCC(=O)N(C)C)cc43)n1)C[S+]([O-])C2` (centres unmarked) [2-94, N,N-Dimethyl-2-[[1-(2-o-tolyl-6-oxo-5,7-dihydro-thieno[3,4-d]pyrimidin-4-yl)-2,3-dihydro-1H-indol-6-yl]oxy]-acetamide], the IC50 was 100 to 1000 nM. The inhibition at 1 µM under setting [1] was found to be 91%.

These data come from patent publication US9527832B2, “Substituted condensed pyrimidine compounds” (GRÜNENTHAL GMBH, priority 2013, dated 2016).
